Measurements published in patent US20240398893A1, “ANTI-CORONAVIRUS POLYPEPTIDE AS WELL AS DERIVATIVE AND APPLICATION THEREOF” (priority 2021, published 2024).
pEC50: −log10 of the molar value.

What was measured:
[1] = during purification process of solid-phase synthesis
[2] = test system: pseudovirus of the SARS-COV-2 prototype

## DLGDISGINASVVNIQKEIDRLNEVAKNLNESLIDLQELGSGSGC(CH2COOChol)-NH2 [P3-2-GS-Chol-1]
[1]
  stability: poor stability

## DLGDISGINASVVNIQKEIDRLNEVAKNLNESLIDLQELGSGSGC(CH2CONH(PEG)4CH2COOChol)-NH2 [P3-2-GS-PEG-Chol-1]
[1]
  stability: poor stability

## CC[C@H](C)[C@H](NC(=O)CNC(=O)[C@H](CO)NC(=O)[C@@H](NC(=O)[C@H](CC(=O)O)NC(=O)CNC(=O)[C@H](Cc1ccccc1)NC(=O)[C@H](CCCCN)NC(=O)[C@@H](N)C(C)C)[C@@H](C)CC)C(=O)N[C@@H](CC(N)=O)C(=O)N[C@@H](C)C(=O)N[C@@H](CO)C(=O)N[C@H](C(=O)N[C@H](C(=O)N[C@@H](CC(N)=O)C(=O)N[C@H](C(=O)N[C@@H](CCCCN)C(=O)N[C@@H](CCC(=O)O)C(=O)N[C@@H](CCC(=O)O)C(=O)N[C@H](C(=O)N[C@@H](CC(=O)O)C(=O)N[C@@H](CCCNC(=N)N)C(=O)N[C@@H](CC(C)C)C(=O)N[C@@H](Cc1ccc(O)cc1)C(=O)N[C@@H](CCC(=O)O)C(=O)N[C@H](C(=O)N[C@H](C(=O)N[C@@H](CCCCN)C(=O)N[C@@H](CC(N)=O)C(=O)N[C@@H](CC(C)C)C(=O)N[C@@H](CC(N)=O)C(=O)N[C@@H](CCC(=O)O)C(=O)N[C@@H](CO)C(=O)N[C@@H](CC(C)C)C(=O)N[C@H](C(=O)N[C@@H](CC(=O)O)C(=O)N[C@@H](CC(C)C)C(=O)N[C@@H](CCC(N)=O)C(=O)N[C@@H](CCC(=O)O)C(=O)N[C@@H](CC(C)C)C(=O)O)[C@@H](C)CC)C(C)C)C(C)C)[C@@H](C)CC)[C@@H](C)CC)C(C)C)C(C)C [P3-3]
[2]
  pEC50: 6.30
